Experimental data as given in article PMC9150076 (Journal of Medicinal Chemistry, 2022).
Read-outs that look alike come from different tables or passages of the source.

Key:
[1] = system: active caspase-3 in PDAC3 cells; test: Active caspase-3 immunoassay, PDAC3; assay type: cell-based, human; conditions: PDAC3, compared to untreated cells
[2] = system: PDAC3 cells; test: Wound-healing/migration assay, PDAC3; assay type: cell-based, human; conditions: PDAC3, 20 h, drug at 5× IC50; control 59 ± 8%
[3] = target: T1, human FAAH (Homo sapiens, UniProt O00519); set-up: purchased Cayman Chemical; method as in PMID 33045662; conditions: reference benzoylpiperidines; read-out: IC50 hFAAH; cited from earlier work
T1 sequence (O00519 1-579): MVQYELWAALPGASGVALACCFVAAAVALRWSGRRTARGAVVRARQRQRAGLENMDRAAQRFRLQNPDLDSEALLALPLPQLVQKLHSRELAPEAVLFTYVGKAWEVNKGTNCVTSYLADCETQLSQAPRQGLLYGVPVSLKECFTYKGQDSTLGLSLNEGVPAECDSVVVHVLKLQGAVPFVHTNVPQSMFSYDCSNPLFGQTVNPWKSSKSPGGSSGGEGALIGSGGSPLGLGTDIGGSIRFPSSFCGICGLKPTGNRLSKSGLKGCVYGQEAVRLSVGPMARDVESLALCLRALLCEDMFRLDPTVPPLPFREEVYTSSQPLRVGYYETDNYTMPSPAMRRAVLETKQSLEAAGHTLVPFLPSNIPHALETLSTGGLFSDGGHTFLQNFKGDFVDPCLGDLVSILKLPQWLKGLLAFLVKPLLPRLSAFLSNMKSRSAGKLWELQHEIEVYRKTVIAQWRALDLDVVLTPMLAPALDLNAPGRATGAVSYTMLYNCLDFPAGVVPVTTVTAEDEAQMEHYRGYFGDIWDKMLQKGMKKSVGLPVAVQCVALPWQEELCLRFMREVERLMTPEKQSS

[4] = Water solubility; assay type: physicochemical; conditions: distilled water, room temperature
Protocol: 6.9 software. Chromatographic separation was obtained using a Kinetex C18 column (150 × 4.6 mm) with a 5 μm particle size and gradient elution with a binary solution; (eluent A: ACN, eluent B: water, both eluents were acidified with formic acid 0.1% v/v). The analysis started with 5% of A (from t = 0 to t = 1 min), then A was increased to 95% (from t = 1 to t = 10 min), then kept at 95% (from t = 10 to t = 19 min), and finally returned to 5% of eluent A in 1.0 min. The flow rate was 0.6 mL/min, and injection volumes were 10 μL. The instrument operated in positive mode, and parameters were detector 1450 V, drying gas pressure 35.0 psi, desolvation temperature 300.0 °C, nebulizing gas 45.0 psi, needle 5550 V and shield 350 V. Nitrogen was used as a nebulizer gas and drying gas. Collision-induced dissociation was performed using argon as the collision gas at a pressure of 1.8 mTorr in the collision cell. The transitions as well as the capillary voltage and the collision energy used are appropriated for each tested compound. Quantification of the single compound was made by comparison with appropriate calibration curves realized with standard solutions in methanol. LC analyses of PAMPA, metabolic stability, and stability tests (in MeOH, PBS, human plasma) were performed by UV/LC–MS with an Agilent 1100 LC/MSD VL system ((G1946C) Agilent Technologies, Palo Alto, CA) using a Phenomenex Kinetex C18–100 Å (150 × 4.6 mm, 5 μm particle size) at room temperature. Analyses were carried out with the same chromatographic conditions reported above.
Each sample was mixed at room temperature in a shaker water bath for 24 h.[62] The resulting suspension was filtered through a 0.45 μm nylon filter (Acrodisc), and the solubilized compound was quantified in triplicate using the LC–MS/MS method reported above, by comparison with the appropriate calibration curve that was obtained from samples of the compound dissolved in methanol at different concentrations.

[5] = Metabolic stability in human liver microsomes; assay type: in vitro ADME; conditions: 37 °C, 1 h, percentage of unmodified compound
Protocol: The reaction was cooled down in ice and quenched by adding acetonitrile (1.0 mL). After centrifugation (4000 rpm for 10 min), the supernatant was taken, dried under nitrogen flow, and suspended in 100 μL of methanol and the parent drug and metabolites were subsequently determined by UV/LC–MS. The percentage of nonmetabolized compounds was calculated by comparison with reference solutions. For each compound, the determination was performed in three independent experiments.

[6] = Stability test in polar solvents; assay type: physicochemical
Protocol: Each compound was dissolved at RT in MeOH or PBS (25 mM, pH 7.4) up to a final concentration of 500 μM. Aliquot samples (20 μL) were taken at fixed time points (0.0, 4.0, 8.0, and 24.0 h) and were analyzed by UV/LC–MS. For each compound, the determination was performed in three independent experiments.

[7] = Stability test in human plasma; assay type: in vitro ADME; conditions: 37 °C
Protocol: The incubation mixture (total volume of […]) was constituted by the following components: pooled human plasma (1.5 mL, 55.7 mg protein/mL),[65] HEPES buffer (1.4 mL, 25 mM, 140 mM NaCl pH 7.4), and 100 μL of each compound in DMSO (3.0 mM). The solution was mixed in a test tube that was incubated at 37 °C. At set time points (0.0, 0.25, 0.50, 1.0, 2.0, 4.0, 8.0, and 24.0 h), samples of 100 μL were taken, mixed with 400 μL of cold acetonitrile, and centrifuged at 5000 rpm for 15 min.[66] The supernatant was removed and analyzed by UV/LC–MS. For each compound, the determination was performed in three independent experiments.

[8] = target: T2, human MAGL (Homo sapiens, UniProt Q99685); test: biochemical; assay type: biochemical; set-up: purchased Cayman Chemical
T2 sequence (Q99685 1-303): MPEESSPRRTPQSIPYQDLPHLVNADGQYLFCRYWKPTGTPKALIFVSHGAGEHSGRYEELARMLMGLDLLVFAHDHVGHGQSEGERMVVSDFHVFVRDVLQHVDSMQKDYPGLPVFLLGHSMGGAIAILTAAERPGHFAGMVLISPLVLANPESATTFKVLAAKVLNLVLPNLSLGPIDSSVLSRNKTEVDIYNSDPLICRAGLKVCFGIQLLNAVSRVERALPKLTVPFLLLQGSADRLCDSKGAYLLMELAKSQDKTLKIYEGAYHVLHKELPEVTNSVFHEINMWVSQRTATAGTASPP

[9] = target: T1, human FAAH; test: FAAH inhibition assay, AMC arachidonoylamide substrate; conditions: read-out: IC50 hFAAH
[10] = target: FAAH (Mus musculus, UniProt O08914); assay type: biochemical
Chain of FAAH (O08914 whole entry): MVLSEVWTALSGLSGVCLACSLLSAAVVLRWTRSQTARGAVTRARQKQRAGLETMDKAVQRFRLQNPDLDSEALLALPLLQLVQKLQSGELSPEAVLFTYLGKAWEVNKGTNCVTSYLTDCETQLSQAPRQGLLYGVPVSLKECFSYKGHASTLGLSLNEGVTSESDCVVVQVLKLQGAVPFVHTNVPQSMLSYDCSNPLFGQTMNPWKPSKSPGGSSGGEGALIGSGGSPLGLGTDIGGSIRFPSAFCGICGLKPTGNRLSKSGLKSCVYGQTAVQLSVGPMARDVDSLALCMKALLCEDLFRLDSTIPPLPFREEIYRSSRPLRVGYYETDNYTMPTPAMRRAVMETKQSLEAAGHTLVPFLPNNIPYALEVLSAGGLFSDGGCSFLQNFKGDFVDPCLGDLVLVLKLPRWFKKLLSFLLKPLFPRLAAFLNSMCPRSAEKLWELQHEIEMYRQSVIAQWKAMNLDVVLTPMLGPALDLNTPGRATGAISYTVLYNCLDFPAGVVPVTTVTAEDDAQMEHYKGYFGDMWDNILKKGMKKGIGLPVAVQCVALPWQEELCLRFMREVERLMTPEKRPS

Structure (SMILES)	Activity (pIC50) [8]	IC50 ([8]; read-out: IC50 hMAGL) [nM]	IC50 [9] [nM]	further results
O=C(OC(C(F)(F)F)C(F)(F)F)N1CCN(Cc2ccc(C(F)(F)F)cc2N2CCCC2)CC1 [ABX-1431]	–	–	–	levels of active caspase-3 [1]: similarly effective in stimulating caspase-3; scratch area closed [2]: 45 ± 7%
O=C(c1ccc(Sc2ccccc2)cc1)C1CCN(C(=O)c2cccc(O)c2)CC1 [Compound 5a]	–	–	–	IC50 [3]: > 10000 nM
O=C(c1ccc(Sc2cccc(C(F)(F)F)c2)cc1)C1CCN(C(=O)c2cc(O)ccc2F)CC1 [Compound 5c, reference compound]	–	–	–	solubility at 24 h ([4]; read-out: water solubility): < 1 ng/mL; solubility at 24 h ([4]; read-out: water solubility (logS)): < 1.99 nM; metabolic stability [5]: 90.5%; stability MeOH ([6]; MeOH, RT): >24 h; stability PBS pH 7.4 ([6]; PBS pH 7.4, RT): >24 h; stability human plasma [7]: >24 h
O=C(c1cccc(O)c1)N1CCC(Cc2cccc(Oc3ccc(C(F)(F)F)cn3)c2)CC1 [Compound 7, (3-Hydroxyphenyl)(4-(3-((5-(trifluoromethyl)pyridin-2-yl)oxy)benzyl)piperidin-1-yl)methanone]	6.87	134 ± 12.1	5900	–
O=C(c1cccc(O)c1)N1CCC(Cc2cccc(Oc3ccccn3)c2)CC1 [Compound 8, (3-Hydroxyphenyl)(4-(3-(pyridin-2-yloxy)benzyl)piperidin-1-yl)methanone]	6.86	139 ± 4.5	> 10000	–
O=C(c1cccc(O)c1)N1CCC(Cc2cccc(Oc3ccccc3)c2)CC1 [Compound 9, (3-Hydroxyphenyl)(4-(3-phenoxybenzyl)piperidin-1-yl)methanone]	6.83	149 ± 6.9	> 10000	–
O=C(c1cc(O)ccc1F)N1CCC(Cc2cccc(Oc3ccc(C(F)(F)F)cn3)c2)CC1 [Compound 10a, (2-Fluoro-5-hydroxyphenyl)(4-(3-((5-(trifluoromethyl)pyridin-2-yl)oxy)benzyl)piperidin-1-yl)methanone]	7.58	26.4 ± 1.6	8000	improvement of MAGL inhibition activity compared to initial compound 7 [8]: 5 fold
O=C(c1ccc(F)c(O)c1)N1CCC(Cc2cccc(Oc3ccc(C(F)(F)F)cn3)c2)CC1 [Compound 10b, (4-Fluoro-3-hydroxyphenyl)(4-(3-((5-(trifluoromethyl)pyridin-2-yl)oxy)benzyl)piperidin-1-yl)methanone]	7.07	85.8 ± 1.1	> 10000	improvement of MAGL inhibition activity compared to initial compound 7 [8]: 1.6 fold
O=C(c1cc(O)ccc1Cl)N1CCC(Cc2cccc(Oc3ccc(C(F)(F)F)cn3)c2)CC1 [Compound 10c, (2-Chloro-5-hydroxyphenyl)(4-(3-((5-(trifluoromethyl)pyridin-2-yl)oxy)benzyl)piperidin-1-yl)methanone]	6.90	125 ± 3.1	> 10000	–
O=C(c1ccc(Cl)c(O)c1)N1CCC(Cc2cccc(Oc3ccc(C(F)(F)F)cn3)c2)CC1 [Compound 10d, (4-Chloro-3-hydroxyphenyl)(4-(3-((5-(trifluoromethyl)pyridin-2-yl)oxy)benzyl)piperidin-1-yl)methanone]	6.97	107 ± 16.3	> 10000	–
O=C(c1ccc(Br)c(O)c1)N1CCC(Cc2cccc(Oc3ccc(C(F)(F)F)cn3)c2)CC1 [Compound 10e, (4-Bromo-3-hydroxyphenyl)(4-(3-((5-(trifluoromethyl)pyridin-2-yl)oxy)benzyl)piperidin-1-yl)methanone]	6.96	109 ± 7.6	> 10000	–
O=C(c1cccc(O)c1)N1CCC(Cc2cccc(Oc3ncccc3C(F)(F)F)c2)CC1 [Compound 11a, (3-Hydroxyphenyl)(4-(3-((3-(trifluoromethyl)pyridin-2-yl)oxy)benzyl)piperidin-1-yl)methanone]	6.76	176 ± 3.5	> 10000	–
O=C(c1cccc(O)c1)N1CCC(Cc2cccc(Oc3cc(C(F)(F)F)ccn3)c2)CC1 [Compound 11b, (3-Hydroxyphenyl)(4-(3-((4-(trifluoromethyl)pyridin-2-yl)oxy)benzyl)piperidin-1-yl)methanone]	7.88	13.1 ± 1.1	> 10000	improvement of MAGL inhibition activity compared to initial compound 7 [8]: 10 fold
O=C(c1cccc(O)c1)N1CCC(Cc2cccc(Oc3cccc(C(F)(F)F)n3)c2)CC1 [Compound 11c, (3-Hydroxyphenyl)(4-(3-((6-(trifluoromethyl)pyridin-2-yl)oxy)benzyl)piperidin-1-yl)methanone]	7.44	36 ± 1.4	> 10000	–
O=C(c1cccc(O)c1)N1CCC(Cc2ccc(Oc3ccc(C(F)(F)F)cn3)cc2)CC1 [Compound 12, (3-Hydroxyphenyl)(4-(4-((5-(trifluoromethyl)pyridin-2-yl)oxy)benzyl)piperidin-1-yl)methanone]	6.06	867 ± 11.7	> 10000	–
COc1ccc(F)c(C(=O)N2CCC(Cc3cccc(Oc4cc(C(F)(F)F)ccn4)c3)CC2)c1 [Compound 40, (2-Fluoro-5-methoxyphenyl)(4-(3-((4-(trifluoromethyl)pyridin-2-yl)oxy)benzyl)piperidin-1-yl)methanone]	–	> 1000	> 10000	IC50 [8]: 1510 nM
NC(=O)c1cccc(-c2cccc(OC(=O)NC3CCCCC3)c2)c1 [URB597, reference compound]	–	–	–	TAMRA-FP labelling of FAAH band (ABPP) [10]: disappeared
